Results from patent US20140288052A1, “SUBSTITUTED BICYCLIC AZA-HETEROCYCLES AND ANALOGUES AS SIRTUIN MODULATORS” (GlaxoSmithKline, LLC, priority 2011, published 2014).

Assays:
SIRT1 [1] = target: T1, SIRT1 (Homo sapiens, UniProt Q96EB6); assay: TAMRA based mass spectrometry assay of SIRT1 deacetylase activation; format: biochemical; conditions: TAMRA peptide substrate; for TAMRA EC1.5 (μM): concentration that results in 150% activation of SIRT1; for TAMRA % Fold Act: percent maximum fold activation relative to control (100%)
T1 sequence (Q96EB6 1-747): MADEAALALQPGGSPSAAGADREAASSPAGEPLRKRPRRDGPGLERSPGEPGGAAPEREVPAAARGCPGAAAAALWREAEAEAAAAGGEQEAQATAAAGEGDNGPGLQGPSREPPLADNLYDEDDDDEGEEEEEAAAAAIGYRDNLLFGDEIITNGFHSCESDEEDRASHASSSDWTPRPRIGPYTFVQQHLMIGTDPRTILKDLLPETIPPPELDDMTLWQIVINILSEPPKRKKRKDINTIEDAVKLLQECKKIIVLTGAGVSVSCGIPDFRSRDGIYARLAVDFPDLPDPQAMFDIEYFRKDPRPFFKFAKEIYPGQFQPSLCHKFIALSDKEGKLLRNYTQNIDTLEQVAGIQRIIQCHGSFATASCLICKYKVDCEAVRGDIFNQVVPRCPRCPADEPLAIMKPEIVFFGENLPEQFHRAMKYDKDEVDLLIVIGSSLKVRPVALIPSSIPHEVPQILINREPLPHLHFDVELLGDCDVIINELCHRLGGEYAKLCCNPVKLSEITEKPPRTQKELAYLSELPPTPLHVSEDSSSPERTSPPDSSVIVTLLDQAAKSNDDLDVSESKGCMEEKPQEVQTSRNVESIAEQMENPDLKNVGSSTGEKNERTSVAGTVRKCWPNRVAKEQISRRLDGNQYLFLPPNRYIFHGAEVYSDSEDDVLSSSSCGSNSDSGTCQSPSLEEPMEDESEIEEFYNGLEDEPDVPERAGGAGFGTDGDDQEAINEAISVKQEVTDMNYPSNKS
Excerpt: (§1) Mass spectrometry based assays were used to identify modulators of SIRT1 activity. The TAMRA based assay utilized a peptide having 20 amino acid residues as follows: Ac-EE-K(biotin)-GQSTSSHSK(Ac)NleSTEG-K(5TMR)-EE-NH2 (SEQ ID NO: 1), wherein K(Ac) is an acetylated lysine residue and Nle is a norleucine. The peptide was labeled with the fluorophore 5TMR (excitation 540 nm/emission 580 nm) at the C-terminus. The sequence of the peptide substrate was based on p53 with several modifications. In addition, the methionine residue naturally present in the sequence was replaced with the norleucine because the methionine may be susceptible to oxidation during synthesis and purification. The Trp based assay utilized a peptide having an amino acid residues as follows: Ac-R-H-K-K(Ac)-W-NH2 (SEQ ID NO: 2).
The TAMRA based mass spectrometry assay was conducted as follows: 0.5 μM peptide substrate and 120 μM βNAD^+ was incubated with 10 nM SIRT1 for 25 minutes at 25° C. in a reaction buffer (50 mM Tris-acetate pH 8, 137 mM NaCl, 2.7 mM KCl, 1 mM MgCl2, 5 mM DTT, 0.05% BSA). The SIRT1 protein was obtained by cloning the SirT1 gene into a T7-promoter containing vector, which was then transformed and expressed in BL21(DE3) bacterial cells. Test compound was added at varying concentrations to this reaction mixture and the resulting reactions were monitored. After the 25 minute incubation with SIRT1, 10 μL of 10% formic acid was added to stop the reaction. The resulting reactions were sealed and frozen for later mass spec analysis. Determination of the amount of deacetylated substrate peptide formed (or, alternatively, the amount of O-acetyl-ADP-ribose (OAADPR) generated) by the sirtuin-mediated NAD-dependent deacetylation reaction allowed for the precise measurement of relative SIRT1 activity in the presence of varying concentrations of the test compound versus control reactions lacking the test compound.
(§2) A control for inhibition of sirtuin activity was conducted by adding 1 μL of 500 mM nicotinamide as a negative control at the start of the reaction (e.g., permits determination of maximum sirtuin inhibition). A control for activation of sirtuin activity was conducted using 10 nM of sirtuin protein, with 1 μL of DMSO in place of compound, to determine the amount of deacetylation of the substrate at a given time point within the linear range of the assay. This time point was the same as that used for test compounds and, within the linear range, the endpoint represents a change in velocity. For the above assay, SIRT1 protein was expressed and purified as follows. The SirT1 gene was cloned into a T7-promoter containing vector and transformed into BL21(DE3). The protein was expressed by induction with 1 mM IPTG as an N-terminal His-tag fusion protein at 18° C. overnight and harvested at 30,000×g. Cells were lysed with lysozyme in lysis buffer (50 mM Tris-HCl, 2 mM Tris[2-carboxyethyl] phosphine (TCEP), 10 μM ZnCl2, 200 mM NaCl) and further treated with sonication for 10 min for complete lysis. The protein was purified over a Ni-NTA column (Amersham) and fractions containing pure protein were pooled, concentrated and run over a sizing column (Sephadex S200 26/60 global). The peak containing soluble protein was collected and run on an Ion-exchange column (MonoQ). Gradient elution (200 mM-500 mM NaCl) yielded pure protein. This protein was concentrated and dialyzed against dialysis buffer (20 mM Tris-HCl, 2 mM TCEP) overnight. The protein was aliquoted and frozen at −80° C. until further use.
Sirtuin-modulating compounds of Formula (I) that activated SIRT1 were identified using the assay described above and are shown below in Table 1. The EC1.5 values represent the concentration of test compounds that result in 150% activation of SIRT1. The EC1.5 values for the activating compounds of Formula (I) are represented by A (EC1.5<1 μM), B (EC1.5 1−25 μM), C (EC1.5>25 μM). […]

SIRT1 [2] = target: T1, SIRT1; assay: Trp mass spectrometry assay of SIRT1 deacetylase activation; format: biochemical; conditions: Trp peptide substrate; for TRP EC1.5 (μM): concentration that results in 150% activation of SIRT1; for TRP % Fold Act: percent maximum fold activation relative to control (100%)
Excerpt: as §1
The Trp mass spectrometry assay was conducted as follows. 0.5 μM peptide substrate and 120 μM βNAD^+ were incubated with 10 nM SIRT1 for 25 minutes at 25° C. in a reaction buffer (50 mM HEPES pH 7.5, […], 1 mM DTT, 0.05% BSA). The SIRT1 protein was obtained by cloning the SirT1 gene into a T7-promoter containing vector, which was then expressed in BL21(DE3) bacterial cells and purified as described in further detail below. Test compound was added at varying concentrations to this reaction mixture and the resulting reactions were monitored. After the 25 minute incubation with SIRT1, 10 μL of 10% formic acid was added to stop the reaction. The resulting reactions were sealed and frozen for later mass spec analysis. The relative SIRT1 activity was then determined by measuring the amount of O-acetyl-ADP-ribose (OAADPR) formed (or, alternatively, the amount of deacetylated Trp peptide generated) by the NAD-dependent sirtuin deacetylation reaction in the presence of varying concentrations of the test compound versus control reactions lacking the test compound. The degree to which the test agent activated deacetylation by SIRT1 was expressed as EC1.5 (i.e., the concentration of compound required to increase SIRT1 activity by 50% over the control lacking test compound), and Percent Maximum Activation (i.e., the maximum activity relative to control (100%) obtained for the test compound).
as §2
Sirtuin-modulating compounds of Formula (I) that activated SIRT1 were identified using the assay described above and are shown below in Table 1. […]

SMILES	TAMRA EC1.5 (μM) (SIRT1 [1])	TAMRA % Fold Act (SIRT1 [1])	TRP EC1.5 (μM) (SIRT1 [2])	TRP % Fold Act (SIRT1 [2])
Cc1cnc(NC(=O)c2ccnn3cc(-c4ccccc4C(F)(F)F)nc23)s1 [Compound 14]	A (EC1.5<1 μM)	B (Fold Activation<350%)	C (EC1.5>25 μM)	B (Fold Activation<350%)
O=C(Nc1cccc(N2CCOCC2)n1)c1ccnn2cc(-c3ccccc3C(F)(F)F)nc12 [Compound 16]	A (EC1.5<1 μM)	A (Fold activation≧350%)	C (EC1.5>25 μM)	B (Fold Activation<350%)
O=C(Nc1nccs1)c1ccnn2cc(-c3cccc(C(F)(F)F)c3)nc12 [Compound 17]	C (EC1.5>25 μM)	B (Fold Activation<350%)	C (EC1.5>25 μM)	B (Fold Activation<350%)
Cc1cnc(NC(=O)c2ccnn3cc(-c4cccc(C(F)(F)F)c4)nc23)s1 [Compound 18]	C (EC1.5>25 μM)	B (Fold Activation<350%)	C (EC1.5>25 μM)	B (Fold Activation<350%)
O=C(Nc1nccs1)c1ccnn2cc(-c3cccc(Cl)c3)nc12 [Compound 21]	C (EC1.5>25 μM)	B (Fold Activation<350%)	C (EC1.5>25 μM)	B (Fold Activation<350%)
O=C(Nc1ccccn1)c1cc(N2CCOCC2)nn2cc(-c3cccc(F)c3)nc12 [Compound 27]	C (EC1.5>25 μM)	B (Fold Activation<350%)	C (EC1.5>25 μM)	B (Fold Activation<350%)
O=C(Nc1cccnc1)c1cc(N2CCOCC2)nn2cc(-c3cccc(F)c3)nc12 [Compound 28]	C (EC1.5>25 μM)	B (Fold Activation<350%)	C (EC1.5>25 μM)	B (Fold Activation<350%)
O=C(Nc1ccncc1)c1cc(N2CCOCC2)nn2cc(-c3cccc(F)c3)nc12 [Compound 29]	C (EC1.5>25 μM)	B (Fold Activation<350%)	C (EC1.5>25 μM)	B (Fold Activation<350%)
O=C(Nc1nccs1)c1cc(N2CCOCC2)nn2cc(-c3cccc(Cl)c3)nc12 [Compound 30]	C (EC1.5>25 μM)	B (Fold Activation<350%)	C (EC1.5>25 μM)	B (Fold Activation<350%)
O=C(Nc1ccccn1)c1cc(N2CCOCC2)nn2cc(-c3cccc(Cl)c3)nc12 [Compound 32]	C (EC1.5>25 μM)	B (Fold Activation<350%)	C (EC1.5>25 μM)	B (Fold Activation<350%)
O=C(Nc1cccnc1)c1cc(N2CCOCC2)nn2cc(-c3cccc(Cl)c3)nc12 [Compound 33]	C (EC1.5>25 μM)	B (Fold Activation<350%)	C (EC1.5>25 μM)	B (Fold Activation<350%)
O=C(Nc1ccccn1)c1cc(N2CCOCC2)nn2cc(-c3ccccc3Cl)nc12 [Compound 36]	C (EC1.5>25 μM)	B (Fold Activation<350%)	C (EC1.5>25 μM)	B (Fold Activation<350%)
O=C(Nc1nccs1)c1cc(N2CCOCC2)nn2cc(-c3ccccc3F)nc12 [Compound 37]	C (EC1.5>25 μM)	B (Fold Activation<350%)	C (EC1.5>25 μM)	B (Fold Activation<350%)
O=C(Nc1ccccn1)c1cc(N2CCOCC2)nn2cc(-c3ccccc3F)nc12 [Compound 39]	C (EC1.5>25 μM)	B (Fold Activation<350%)	C (EC1.5>25 μM)	B (Fold Activation<350%)
O=C(Nc1cccnc1)c1cc(N2CCOCC2)nn2cc(-c3ccccc3F)nc12 [Compound 40]	C (EC1.5>25 μM)	B (Fold Activation<350%)	C (EC1.5>25 μM)	B (Fold Activation<350%)
O=C(Nc1ccncc1)c1cc(N2CCOCC2)nn2cc(-c3ccccc3F)nc12 [Compound 41]	C (EC1.5>25 μM)	B (Fold Activation<350%)	C (EC1.5>25 μM)	B (Fold Activation<350%)
O=C(Nc1nccs1)c1cc(N2CCOCC2)nn2cc(-c3ccccc3C(F)(F)F)nc12 [Compound 42]	B (EC1.5 1−25 μM)	B (Fold Activation<350%)	C (EC1.5>25 μM)	B (Fold Activation<350%)
Cc1cnc(NC(=O)c2cc(N3CCOCC3)nn3cc(-c4ccccc4C(F)(F)F)nc23)s1 [Compound 43]	A (EC1.5<1 μM)	B (Fold Activation<350%)	C (EC1.5>25 μM)	B (Fold Activation<350%)
